According to ChEMBL document CHEMBL3885861, “Open TG-GATES”:

Species on record: Rattus norvegicus
Assay: Open TG-GATES - Regimen: Daily Repeat
Type: toxicity, organism-based, Sprague-Dawley
Parameters: regimen Daily Repeat, gender Male, age 6 weeks
Settings: in vivo, po, route gavage; for Bas / Eos / Fbg / Ht / Lym / MCHC / MCV / Mono / PT / Plat / RBC / Ret / WBC / Neu: tissue Blood; for KIDNEY_L / KIDNEY_R / KIDNEY_TOTAL: tissue Kidney; for ALT / AST / CRE / Ca / DBIL / GLC / IP / K / LDH / Na / PL / RALB / TBIL / TC / TG / TP / gamma-GTP / BUN / Cl: tissue Plasma
[1] = 240 mg/kg, 72 h, dose level Middle, time 3 day
[2] = 240 mg/kg, […], dose level Middle, time 7 day
[3] = 240 mg/kg, […], dose level Middle, time 14 day
[4] = 240 mg/kg, […], dose level Middle, time 28 day
[5] = 800 mg/kg, 72 h, dose level High, time 3 day
[6] = 800 mg/kg, […], dose level High, time 7 day
[7] = 800 mg/kg, […], dose level High, time 14 day
[8] = 800 mg/kg, […], dose level High, time 28 day

COc1ccc([C@@H]2Sc3ccccc3N(CCN(C)C)C(=O)[C@@H]2OC(C)=O)cc1 [DILTIAZEM]
Bas [1]: 0.2% | Eos [1]: 1% | Fbg [1]: 294.4 mg/dL | Ht [1]: 40.4% | Lym [1]: 71.6% | MCHC [1]: 32.8% | MCV [1]: 65.7 fL | Mono [1]: 3.4% | PT [1]: 13.8 s | Plat [1]: 118.5 x10_4/uL | RBC [1]: 614.8 x10_4/ul | Ret [1]: 8.8% | WBC [1]: 106.5 x10_2/uL | KIDNEY_L [1]: 1 g | KIDNEY_R [1]: 1 g | KIDNEY_TOTAL [1]: 2 g | ALT [1]: 50 IU/L | AST [1]: 67.4 IU/L | CRE [1]: 0.2 mg/dL | Ca [1]: 11.3 mg/dL | DBIL [1]: 0.02 mg/dL | GLC [1]: 183 mg/dL | IP [1]: 8.1 mg/dL | K [1]: 3.9 meq/L | LDH [1]: 81.8 IU/L | Na [1]: 144 meq/L | PL [1]: 153.8 mg/dL | RALB [1]: 2.7 g/dL | TBIL [1]: 0.024 mg/dL | TC [1]: 87.6 mg/dL | TG [1]: 99.4 mg/dL | TP [1]: 5.6 g/dL | gamma-GTP [1]: 1.2 IU/L | TERMINAL_BW [2]: 251.4 g | TERMINAL_BW [3]: 321.6 g | TERMINAL_BW [4]: 419 g | Bas [2]: 0% | Eos [2]: 0.8% | Fbg [2]: 301.4 mg/dL | Ht [2]: 41% | Lym [2]: 75.2% | MCHC [2]: 32.9% | MCV [2]: 63.6 fL | Mono [2]: 2.6% | Neu [2]: 20.6% | PT [2]: 13.9 s | Plat [2]: 129.2 x10_4/uL | RBC [2]: 644.6 x10_4/ul | Ret [2]: 7% | WBC [2]: 72.6 x10_2/uL | Bas [3]: 0.6% | Eos [3]: 0.8% | Fbg [3]: 336.4 mg/dL | Ht [3]: 42.8% | Lym [3]: 73% | MCHC [3]: 33.1% | MCV [3]: 61.7 fL | Mono [3]: 2.6% | Neu [3]: 22.2% | PT [3]: 14.1 s | Plat [3]: 131.9 x10_4/uL | RBC [3]: 693.6 x10_4/ul | Ret [3]: 5.6% | WBC [3]: 112.7 x10_2/uL | Bas [4]: 0.2% | Eos [4]: 1.4% | Fbg [4]: 305.4 mg/dL | Ht [4]: 45.7% | Lym [4]: 69% | MCHC [4]: 34.4% | MCV [4]: 58.1 fL | Mono [4]: 2.4% | Neu [4]: 26.6% | PT [4]: 13.9 s | Plat [4]: 109.1 x10_4/uL | RBC [4]: 786.8 x10_4/ul | Ret [4]: 2.5% | WBC [4]: 119 x10_2/uL | KIDNEY_L [2]: 1.1 g | KIDNEY_R [2]: 1 g | KIDNEY_TOTAL [2]: 2.1 g | KIDNEY_L [3]: 1.3 g | KIDNEY_R [3]: 1.4 g | KIDNEY_TOTAL [3]: 2.7 g | KIDNEY_L [4]: 1.5 g | KIDNEY_R [4]: 1.5 g | KIDNEY_TOTAL [4]: 3 g | ALT [2]: 38.6 IU/L | AST [2]: 61.6 IU/L | BUN [2]: 15 mg/dL | CRE [2]: 0.2 mg/dL | Ca [2]: 11.4 mg/dL | Cl [2]: 105.8 meq/L | DBIL [2]: 0.01 mg/dL | GLC [2]: 190.6 mg/dL | IP [2]: 8.2 mg/dL | K [2]: 3.9 meq/L | LDH [2]: 97.2 IU/L | Na [2]: 144.2 meq/L | PL [2]: 155 mg/dL | RALB [2]: 2.8 g/dL | TBIL [2]: 0.016 mg/dL | TC [2]: 81.2 mg/dL | TG [2]: 117 mg/dL | TP [2]: 5.9 g/dL | gamma-GTP [2]: 1.2 IU/L | ALT [3]: 44.4 IU/L | AST [3]: 67.8 IU/L | BUN [3]: 14.8 mg/dL | CRE [3]: 0.2 mg/dL | Ca [3]: 11 mg/dL | DBIL [3]: 0.012 mg/dL | GLC [3]: 194.4 mg/dL | IP [3]: 7.6 mg/dL | K [3]: 4 meq/L | LDH [3]: 80 IU/L | Na [3]: 144.4 meq/L | PL [3]: 165.4 mg/dL | RALB [3]: 2.8 g/dL | TBIL [3]: 0.014 mg/dL | TC [3]: 84.2 mg/dL | TG [3]: 125.4 mg/dL | TP [3]: 6.1 g/dL | gamma-GTP [3]: 1.4 IU/L | ALT [4]: 43.8 IU/L | AST [4]: 64.2 IU/L | BUN [4]: 17.2 mg/dL | CRE [4]: 0.2 mg/dL | Ca [4]: 11.3 mg/dL | Cl [4]: 108.6 meq/L | DBIL [4]: 0.012 mg/dL | GLC [4]: 188.6 mg/dL | IP [4]: 7 mg/dL | K [4]: 4 meq/L | LDH [4]: 82.6 IU/L | Na [4]: 146.6 meq/L | PL [4]: 168.8 mg/dL | RALB [4]: 3 g/dL | TBIL [4]: 0.014 mg/dL | TC [4]: 85.2 mg/dL | TG [4]: 163.4 mg/dL | TP [4]: 6.6 g/dL | gamma-GTP [4]: 1 IU/L | TERMINAL_BW [5]: 201.2 g | Bas [5]: 0% | Eos [5]: 1% | Fbg [5]: 277 mg/dL | Ht [5]: 41.8% | Lym [5]: 71.4% | MCHC [5]: 33.3% | MCV [5]: 64.5 fL | Mono [5]: 2.6% | Neu [5]: 24.2% | PT [5]: 14 s | Plat [5]: 141.9 x10_4/uL | RBC [5]: 651.2 x10_4/ul | Ret [5]: 7.5% | WBC [5]: 87.5 x10_2/uL | KIDNEY_L [5]: 0.9 g | KIDNEY_R [5]: 0.9 g | KIDNEY_TOTAL [5]: 1.8 g | ALT [5]: 36.4 IU/L | AST [5]: 61.8 IU/L | CRE [5]: 0.2 mg/dL | Ca [5]: 11 mg/dL | Cl [5]: 106.6 meq/L | DBIL [5]: 0.014 mg/dL | GLC [5]: 161.8 mg/dL | IP [5]: 8 mg/dL | K [5]: 4 meq/L | LDH [5]: 76.6 IU/L | Na [5]: 143.6 meq/L | PL [5]: 151.4 mg/dL | RALB [5]: 2.6 g/dL | TBIL [5]: 0.012 mg/dL | TC [5]: 92.2 mg/dL | TG [5]: 96.6 mg/dL | TP [5]: 5.4 g/dL | gamma-GTP [5]: 1 IU/L | TERMINAL_BW [6]: 242.9 g | TERMINAL_BW [7]: 272.9 g | TERMINAL_BW [8]: 390.8 g | Bas [6]: 0% | Eos [6]: 0.6% | Fbg [6]: 312.6 mg/dL | Ht [6]: 40.7% | Lym [6]: 70.6% | MCHC [6]: 33.3% | MCV [6]: 63.4 fL | Mono [6]: 2.8% | Neu [6]: 25.4% | PT [6]: 14.6 s | Plat [6]: 130.6 x10_4/uL | RBC [6]: 641.4 x10_4/ul | Ret [6]: 6.3% | WBC [6]: 99.7 x10_2/uL | Bas [7]: 0% | Eos [7]: 0.6% | Fbg [7]: 373.6 mg/dL | Ht [7]: 45.5% | Lym [7]: 73.2% | MCHC [7]: 33.4% | MCV [7]: 59.8 fL | Mono [7]: 3.4% | Neu [7]: 21.4% | PT [7]: 14.1 s | Plat [7]: 133.1 x10_4/uL | RBC [7]: 760 x10_4/ul | Ret [7]: 4% | WBC [7]: 108.8 x10_2/uL | Bas [8]: 0.2% | Eos [8]: 1% | Fbg [8]: 281.5 mg/dL | Ht [8]: 45.1% | Lym [8]: 64.8% | MCHC [8]: 34.1% | MCV [8]: 58.1 fL | Mono [8]: 3.2% | Neu [8]: 30.2% | PT [8]: 14.5 s | Plat [8]: 116.2 x10_4/uL | RBC [8]: 777.2 x10_4/ul | Ret [8]: 3.3% | WBC [8]: 123.1 x10_2/uL | KIDNEY_L [6]: 1 g | KIDNEY_R [6]: 1 g | KIDNEY_TOTAL [6]: 2 g | KIDNEY_L [7]: 1.2 g | KIDNEY_R [7]: 1.2 g | KIDNEY_TOTAL [7]: 2.4 g | KIDNEY_L [8]: 1.5 g | KIDNEY_R [8]: 1.5 g | KIDNEY_TOTAL [8]: 2.9 g | ALT [6]: 50 IU/L | AST [6]: 70.6 IU/L | CRE [6]: 0.2 mg/dL | Ca [6]: 11.3 mg/dL | Cl [6]: 105.6 meq/L | DBIL [6]: 0.006 mg/dL | GLC [6]: 187 mg/dL | IP [6]: 8.3 mg/dL | K [6]: 4 meq/L | LDH [6]: 101.6 IU/L | Na [6]: 144.8 meq/L | PL [6]: 145 mg/dL | RALB [6]: 2.7 g/dL | TBIL [6]: 0.004 mg/dL | TC [6]: 87.2 mg/dL | TG [6]: 59.6 mg/dL | TP [6]: 5.7 g/dL | gamma-GTP [6]: 1.2 IU/L | ALT [7]: 61.6 IU/L | AST [7]: 115.4 IU/L | BUN [7]: 16 mg/dL | CRE [7]: 0.2 mg/dL | Ca [7]: 10.7 mg/dL | DBIL [7]: 0.008 mg/dL | GLC [7]: 166.2 mg/dL | IP [7]: 7.2 mg/dL | K [7]: 4 meq/L | LDH [7]: 96.2 IU/L | Na [7]: 146.4 meq/L | PL [7]: 152.8 mg/dL | RALB [7]: 2.8 g/dL | TBIL [7]: 0.004 mg/dL | TC [7]: 99.2 mg/dL | TG [7]: 66.4 mg/dL | TP [7]: 6.1 g/dL | gamma-GTP [7]: 1 IU/L | ALT [8]: 52.5 IU/L | AST [8]: 64 IU/L | BUN [8]: 17.2 mg/dL | CRE [8]: 0.2 mg/dL | Ca [8]: 11.4 mg/dL | Cl [8]: 105.8 meq/L | DBIL [8]: 0.01 mg/dL | GLC [8]: 174.8 mg/dL | IP [8]: 7.2 mg/dL | K [8]: 3.9 meq/L | LDH [8]: 74.8 IU/L | Na [8]: 145.8 meq/L | PL [8]: 154 mg/dL | RALB [8]: 3 g/dL | TBIL [8]: 0.0025 mg/dL | TC [8]: 85.8 mg/dL | TG [8]: 72.2 mg/dL | TP [8]: 6.4 g/dL | gamma-GTP [8]: 2.2 IU/L
